Test results published in patent US8703768B2, “Nitrogen containing heteroaryl compounds” (Hoffmann-La Roche Inc., priority 2010, dated 2014).

Target: human PDE10A (Homo sapiens (Human), UniProt Q9Y233)
Experiment: human PDE10A full length Scintillation Proximity Assay (SPA)
Type: biochemical
Details: 50 nM cGMP and 50 nM [3H]-cGMP, 20 minutes at room temperature; read-out: PDE10A inhibition IC50
How it was run: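 Full-length enzyme incubated with compounds; reaction started with cGMP plus [^3H]-cGMP substrate and run 20 min at room temperature. Stopped with yttrium silicate SPA beads in 18 mM zinc sulphate, 1 h shaking, then scintillation counting; background from enzyme-free wells.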

Chain of human PDE10A (Q9Y233 other isoform, or with tags, fused parts or gaps): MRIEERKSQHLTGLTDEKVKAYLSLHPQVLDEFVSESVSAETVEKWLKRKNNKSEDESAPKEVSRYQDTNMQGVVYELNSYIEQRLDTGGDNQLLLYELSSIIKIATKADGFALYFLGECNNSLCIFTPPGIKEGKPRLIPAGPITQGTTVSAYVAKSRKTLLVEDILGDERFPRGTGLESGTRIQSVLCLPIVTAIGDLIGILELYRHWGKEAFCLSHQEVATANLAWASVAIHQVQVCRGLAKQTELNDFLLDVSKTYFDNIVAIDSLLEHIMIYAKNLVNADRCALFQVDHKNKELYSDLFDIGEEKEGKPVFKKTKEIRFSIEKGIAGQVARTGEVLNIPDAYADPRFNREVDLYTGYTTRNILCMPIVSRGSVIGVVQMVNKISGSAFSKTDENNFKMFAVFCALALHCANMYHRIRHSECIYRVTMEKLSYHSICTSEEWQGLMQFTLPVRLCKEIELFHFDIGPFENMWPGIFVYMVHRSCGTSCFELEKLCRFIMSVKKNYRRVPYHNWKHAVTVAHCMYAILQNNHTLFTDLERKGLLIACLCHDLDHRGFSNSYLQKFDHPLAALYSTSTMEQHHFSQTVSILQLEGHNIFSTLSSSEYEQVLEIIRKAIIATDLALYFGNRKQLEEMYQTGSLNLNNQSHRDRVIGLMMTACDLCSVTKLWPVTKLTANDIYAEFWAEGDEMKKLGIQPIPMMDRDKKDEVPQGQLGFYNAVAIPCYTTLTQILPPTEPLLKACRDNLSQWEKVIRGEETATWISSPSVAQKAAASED

| SMILES | IC50 |
| --- | --- |
| COCCN(C)C(=O)c1ncccc1NC(=O)c1nc(C2CC2)cnc1Nc1cncnc1 [Example 117, 6-Cyclopropyl-3-(pyrimidin-5-ylamino)-pyrazine-2-carboxylic acid {2-[(2-methoxy-ethyl)-methyl-carbamoyl]-pyridin-3-yl}-amide] | 26.8 nM |
| O=C(Nc1sccc1C(=O)N1CCOCC1)c1nc(C2CC2)ccc1Nc1cncnc1 [Example 90, 6-Cyclopropyl-3-(pyrimidin-5-ylamino)-pyridine-2-carboxylic acid [3-(morpholine-4-carbonyl)-thiophen-2-yl]-amide] | 0.4 nM |
| CNC(=O)c1c(NC(=O)c2nc(COC)ccc2Nc2cncnc2)cnn1CCOC [Example 26, 6-Methoxymethyl-3-(pyrimidin-5-ylamino)-pyridine-2-carboxylic acid [1-(2-methoxy-ethyl)-5-methylcarbamoyl-1H-pyrazol-4-yl]-amide] | 28.3 nM |
| O=C(Nc1ccc(F)cc1C(=O)N1CCC1)c1nc(C2CC2)cnc1Nc1cncnc1 [Example 305, 6-Cyclopropyl-3-(pyrimidin-5-ylamino)-pyrazine-2-carboxylic acid [2-(azetidine-1-carbonyl)-4-fluoro-phenyl]-amide] | 4.5 nM |
| CN(CCO)C(=O)c1ccncc1NC(=O)c1nc(C2CC2)ccc1Nc1cncnc1 [Example 73, 6-Cyclopropyl-3-(pyrimidin-5-ylamino)-pyridine-2-carboxylic acid {4-[(2-hydroxy-ethyl)-methyl-carbamoyl]-pyridin-3-yl}-amide] | 18.9 nM |
| CCn1cc(NC(=O)c2nc(C3CC3)cnc2Nc2cncnc2)c(C(=O)NC)n1 [Example 107, 6-Cyclopropyl-N-(1-ethyl-3-(methylcarbamoyl)-1H-pyrazol-4-yl)-3-(pyrimidin-5-ylamino)pyrazine-2-carboxamide] | 117 nM |
| Cn1cc(NC(=O)c2nc(C3CC3)ccc2Nc2cncnc2)c(C(=O)NC2CC2)n1 [Example 31, 6-Cyclopropyl-3-(pyrimidin-5-ylamino)-pyridine-2-carboxylic acid (3-cyclopropylcarbamoyl-1-methyl-1H-pyrazol-4-yl)-amide] | 3.1 nM |
| CCN(C)C(=O)c1ncccc1NC(=O)c1nc(C2CC2)cnc1Nc1cncnc1 [Example 199, 6-Cyclopropyl-3-(pyrimidin-5-ylamino)-pyrazine-2-carboxylic acid [2-(ethyl-methyl-carbamoyl)-pyridin-3-yl]-amide] | 6.2 nM |
| CN(C(=O)c1c(NC(=O)c2nc(C3CC3)cnc2Nc2cncnc2)cnn1C)C1COC1 [Example 240, 6-Cyclopropyl-3-(pyrimidin-5-ylamino)-pyrazine-2-carboxylic acid [1-methyl-5-(methyl-oxetan-3-yl-carbamoyl)-1H-pyrazol-4-yl]-amide] | 191 nM |
| CCn1ncc(NC(=O)c2nc(C3CC3)cnc2Nc2cncnc2)c1C(=O)NCC(C)C [Example 202, 6-Cyclopropyl-3-(pyrimidin-5-ylamino)-pyrazine-2-carboxylic acid (1-ethyl-5-isobutylcarbamoyl-1H-pyrazol-4-yl)-amide] | 3.8 nM |
| Cn1ncc(NC(=O)c2nc(C3CC3)cnc2Nc2cncnc2)c1C(=O)N1CCCC1 [Example 156, 6-Cyclopropyl-3-(pyrimidin-5-ylamino)-pyrazine-2-carboxylic acid [1-methyl-5-(pyrrolidine-1-carbonyl)-1H-pyrazol-4-yl]-amide] | 11.2 nM |
| CN1CCCC(NC(=O)c2c(NC(=O)c3nc(C4CC4)cnc3Nc3cncnc3)cnn2C)C1 (centres unmarked) [Example 241, 6-Cyclopropyl-3-(pyrimidin-5-ylamino)-pyrazine-2-carboxylic acid [1-methyl-5-(1-methyl-piperidin-3-ylcarbamoyl)-1H-pyrazol-4-yl]-amide] | 28.6 nM |
| Cn1cc(NC(=O)c2nc(C3CC3)ccc2Nc2cncnc2)c(C(=O)N2CCOCC2)n1 [Example 14, 6-Cyclopropyl-3-(pyrimidin-5-ylamino)-pyridine-2-carboxylic acid [1-methyl-3-(morpholine-4-carbonyl)-1H-pyrazol-4-yl]-amide] | 11.4 nM |
| Cn1cc(NC(=O)c2nc(C3CC3)ccc2Nc2cncnc2)c(C(=O)NC2CCCCC2)n1 [Example 28, 6-Cyclopropyl-3-(pyrimidin-5-ylamino)-pyridine-2-carboxylic acid (3-cyclohexylcarbamoyl-1-methyl-1H-pyrazol-4-yl)-amide] | 6 nM |
| CNC(=O)c1nnsc1NC(=O)c1nc(C2CC2)ccc1Nc1cncnc1 [Example 54, 6-Cyclopropyl-3-(pyrimidin-5-ylamino)-pyridine-2-carboxylic acid (4-methylcarbamoyl-[1,2,3]thiadiazol-5-yl)-amide] | 25 nM |
| CNC(=O)c1c(NC(=O)c2nc(C3CC3)cnc2Nc2cncnc2)cnn1CCC(F)(F)F [Example 173, 6-Cyclopropyl-3-(pyrimidin-5-ylamino)-pyrazine-2-carboxylic acid [5-methylcarbamoyl-1-(3,3,3-trifluoro-propyl)-1H-pyrazol-4-yl]-amide] | 19.5 nM |

| SMILES | IC50 |
| --- | --- |
| CNC(=O)c1nn(C)cc1NC(=O)c1nc(C2CC2)ncc1Nc1cncnc1 [Example 76, 2-Cyclopropyl-5-(pyrimidin-5-ylamino)-pyrimidine-4-carboxylic acid (1-methyl-3-methylcarbamoyl-1H-pyrazol-4-yl)-amide] | 7.9 nM |
| Cc1ccc(NC(=O)c2nc(C3CC3)cnc2Nc2cncnc2)c(C(=O)NCC(C)(C)O)n1 [Example 183, 6-Cyclopropyl-3-(pyrimidin-5-ylamino)-pyrazine-2-carboxylic acid [2-(2-hydroxy-2-methyl-propylcarbamoyl)-6-methyl-pyridin-3-yl]-amide] | 0.3 nM |
| Cn1ncc(NC(=O)c2nc(C3CC3)cnc2Nc2cncnc2)c1C(=O)NC[C@H]1CCCO1 [Example 256, 6-Cyclopropyl-3-(pyrimidin-5-ylamino)-pyrazine-2-carboxylic acid (1-methyl-5-{[(R)-1-(tetrahydro-furan-2-yl)methyl]-carbamoyl}-1H-pyrazol-4-yl)-amide] | 3.3 nM |
| O=C(NCC1CCCO1)c1ccncc1NC(=O)c1nc(C2CC2)cnc1Nc1cncnc1 (centres unmarked) [Example 101, 6-Cyclopropyl-3-(pyrimidin-5-ylamino)-pyrazine-2-carboxylic acid {4-[(tetrahydro-furan-2-ylmethyl)-carbamoyl]-pyridin-3-yl}-amide] | 1.5 nM |
| CN(C(=O)c1nn(C)cc1NC(=O)c1nc(C2CC2)ccc1Nc1cncnc1)C1CC1 [Example 15, 6-Cyclopropyl-3-(pyrimidin-5-ylamino)-pyridine-2-carboxylic acid [3-(cyclopropyl-methyl-carbamoyl)-1-methyl-1H-pyrazol-4-yl]-amide] | 10.7 nM |
| O=C(NC1CC1)c1nocc1NC(=O)c1nc(C2CC2)cnc1Nc1cncnc1 [Example 163, 6-Cyclopropyl-3-(pyrimidin-5-ylamino)-pyrazine-2-carboxylic acid (3-cyclopropylcarbamoyl-isoxazol-4-yl)-amide] | 6.2 nM |
| O=C(NC1CC1)c1ccncc1NC(=O)c1nc(C2CC2)ccc1Nc1cncnc1 [Example 57, 6-Cyclopropyl-3-(pyrimidin-5-ylamino)-pyridine-2-carboxylic acid (4-cyclopropylcarbamoyl-pyridin-3-yl)-amide] | 2.1 nM |
| CNC(=O)c1c(NC(=O)c2nc(COC)ccc2Nc2cncnc2)cnn1C [Example 189, 6-Methoxymethyl-3-(pyrimidin-5-ylamino)-pyridine-2-carboxylic acid (1-methyl-5-methylcarbamoyl-1H-pyrazol-4-yl)-amide] | 144 nM |
| CNC(=O)c1nn(CC2CC2)cc1NC(=O)c1nc(C2CC2)ccc1Nc1cncnc1 [Example 12, 6-Cyclopropyl-3-(pyrimidin-5-ylamino)-pyridine-2-carboxylic acid (1-cyclopropylmethyl-3-methylcarbamoyl-1H-pyrazol-4-yl)-amide] | 495 nM |
| Cn1ncc(NC(=O)c2nc(C3CC3)cnc2Nc2cncnc2)c1C(=O)NC[C@@H]1CCCO1 [Example 255, 6-Cyclopropyl-3-(pyrimidin-5-ylamino)-pyrazine-2-carboxylic acid (1-methyl-5-{[(S)-1-(tetrahydro-furan-2-yl)methyl]-carbamoyl}-1H-pyrazol-4-yl)-amide] | 2.9 nM |
| CCN(CC)C(=O)c1ccc(C(=O)NC)c(NC(=O)c2nc(C(C)(C)C)ncc2Nc2cncnc2)c1 [Example 94, 2-{[2-tert-Butyl-5-(pyrimidin-5-ylamino)-pyrimidine-4-carbonyl]-amino}-N^4,N^4-diethyl-N^1-methyl-terephthalamide] | 392 nM |
| CN(C)C(=O)c1nn(CC(F)(F)F)cc1NC(=O)c1nc(C2CC2)ccc1Nc1cncnc1 [Example 7, 6-Cyclopropyl-3-(pyrimidin-5-ylamino)-pyridine-2-carboxylic acid [3-dimethylcarbamoyl-1-(2,2,2-trifluoro-ethyl)-1H-pyrazol-4-yl]-amide] | 336 nM |
| CNC(=O)c1nn(C)cc1NC(=O)c1nc(C2CCCO2)ccc1Nc1cncnc1 (centres unmarked) [Example 103, 3-(Pyrimidin-5-ylamino)-6-(tetrahydro-furan-2-yl)-pyridine-2-carboxylic acid (1-methyl-3-methylcarbamoyl-1H-pyrazol-4-yl)-amide] | 58.7 nM |
| O=C1CN(C(=O)c2ccncc2NC(=O)c2nc(C3CC3)ccc2Nc2cncnc2)CCN1 [Example 60, 6-Cyclopropyl-3-(pyrimidin-5-ylamino)-pyridine-2-carboxylic acid [4-(3-oxo-piperazine-1-carbonyl)-pyridin-3-yl]-amide] | 232 nM |
| O=C(Nc1cccnc1C(=O)N1CCCC1)c1nc(C2CC2)cnc1Nc1cncnc1 [Example 198, 6-Cyclopropyl-3-(pyrimidin-5-ylamino)-pyrazine-2-carboxylic acid [2-(pyrrolidine-1-carbonyl)-pyridin-3-yl]-amide] | 2.5 nM |
| CC(C)(O)CNC(=O)c1cc(F)ccc1NC(=O)c1nc(C2CC2)cnc1Nc1cncnc1 [Example 306, 6-Cyclopropyl-3-(pyrimidin-5-ylamino)-pyrazine-2-carboxylic acid [4-fluoro-2-(2-hydroxy-2-methyl-propylcarbamoyl)-phenyl]-amide] | 1.4 nM |
